Source: PubChem BioAssay (NCI)
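These data come from cells grown in 96-well plates and exposed to compound for 48 hours at five concentrations. TGI: total growth inhibition.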

How the values were obtained:
Assay in all cases: NCI tumour cell line growth inhibition, 48 h
TK-10 renal = tested on: TK-10 renal
MDA-N = tested on: MDA-N
SK-MEL-5 melanoma = tested on: SK-MEL-5 melanoma
HOP-92 NSCLC = tested on: HOP-92 NSCLC
SN12C renal = tested on: SN12C renal
SK-MEL-28 melanoma = tested on: SK-MEL-28 melanoma
DU-145 prostate = tested on: DU-145 prostate
U251 CNS = tested on: U251 CNS
786-0 renal = tested on: 786-0 renal
RPMI-8226 leukemia = tested on: RPMI-8226 leukemia
NCI-H226 lung = tested on: NCI-H226 lung
M14 melanoma = tested on: M14 melanoma
SF-295 CNS = tested on: SF-295 CNS
MDA-MB-435 = tested on: MDA-MB-435
OVCAR-3 ovarian = tested on: OVCAR-3 ovarian
CCRF-CEM leukemia = tested on: CCRF-CEM leukemia
OVCAR-8 ovarian = tested on: OVCAR-8 ovarian
LOX IMVI melanoma = tested on: LOX IMVI melanoma
MOLT-4 leukemia = tested on: MOLT-4 leukemia
HL-60(TB) leukemia = tested on: HL-60(TB) leukemia

SMILES | TGI (TK-10 renal) | TGI (MDA-N) | TGI (SK-MEL-5 melanoma) | TGI (HOP-92 NSCLC) | TGI (SN12C renal) | TGI (SK-MEL-28 melanoma) | TGI (DU-145 prostate) | TGI (U251 CNS) | TGI (786-0 renal) | TGI (RPMI-8226 leukemia) | TGI (NCI-H226 lung) | TGI (M14 melanoma) | TGI (SF-295 CNS) | TGI (MDA-MB-435) | TGI (OVCAR-3 ovarian) | TGI (CCRF-CEM leukemia) | TGI (OVCAR-8 ovarian) | TGI (LOX IMVI melanoma) | TGI (MOLT-4 leukemia) | TGI (HL-60(TB) leukemia)
NCCC(=O)N[C@H](Cc1cc(O)c(O)c(SCC(NC(=O)CC[C@H](N)C(=O)O)C(=O)NCC(=O)O)c1)C(=O)O (some centres undefined) | > 50 µM | > 50 µM | > 50 µM | > 50 µM | > 50 µM | > 50 µM | > 50 µM | > 50 µM | > 50 µM | > 50 µM | > 50 µM | > 50 µM | > 50 µM | > 50 µM | – | – | – | – | – | –
Nc1ccc(-c2ncc3cc(-c4cccc(-c5cc6cnc(-c7ccc(N)cc7)nc6c6ccccc56)c4)c4ccccc4c3n2)cc1 | > 100 µM | > 100 µM | > 100 µM | > 100 µM | > 100 µM | > 100 µM | > 100 µM | > 100 µM | > 100 µM | > 100 µM | > 100 µM | > 100 µM | > 100 µM | > 100 µM | > 100 µM | > 100 µM | > 100 µM | > 100 µM | > 100 µM | –
COC(=O)CCC1(C)C2CCC1(C)/C(=N/O)C2 (centres undefined) | > 100 µM | > 100 µM | > 100 µM | – | > 100 µM | > 100 µM | > 100 µM | > 100 µM | > 100 µM | > 100 µM | > 100 µM | > 100 µM | > 100 µM | > 100 µM | > 100 µM | > 100 µM | > 100 µM | – | > 100 µM | –
C=C1CC(Cn2ccc(=O)[nH]c2=O)(c2ccc(-c3ccccc3)cc2)OC1=O (centres undefined) | 2.32 µM | 3.5 µM | 2.39 µM | 2.62 µM | 21.3 µM | 5.34 µM | 2.88 µM | 25 µM | 1.67 µM | 1.29 µM | 13.6 µM | 3.58 µM | 25.3 µM | 6.12 µM | 4.03 µM | 1.2 µM | 11.1 µM | 1.07 µM | 5.26 µM | –
CCC[C@H](O)[C@@H](CNc1cc(NC(C)=O)nc(NC(C)=O)n1)N(Cc1ccccc1)Cc1ccccc1 | 45.1 µM | > 100 µM | > 100 µM | > 100 µM | > 100 µM | > 100 µM | > 100 µM | > 100 µM | 38.6 µM | > 100 µM | 33.1 µM | > 100 µM | 25.5 µM | > 100 µM | 55.6 µM | – | 35.1 µM | > 100 µM | > 100 µM | –
COC(=O)Nc1nc2ccc(Oc3ccc4nc(NC(=O)OC)[nH]c4c3)cc2[nH]1 | > 63.7 µM | > 100 µM | 4.19 µM | > 100 µM | > 100 µM | > 20.4 µM | 6.09 µM | 10.9 µM | > 49.6 µM | > 26.7 µM | 2.72 µM | > 29.6 µM | > 100 µM | 0.166 µM | 0.744 µM | – | > 100 µM | > 100 µM | > 32.8 µM | 1.96 µM
COC(=O)c1ccc(Oc2nc3ccccc3nc2-c2cccs2)cc1 | 86.8 µM | > 100 µM | > 100 µM | – | > 100 µM | > 100 µM | > 100 µM | – | > 100 µM | – | – | > 100 µM | 48 µM | > 100 µM | > 100 µM | > 100 µM | > 100 µM | > 100 µM | > 100 µM | > 100 µM
CSc1c(C#N)c(O)n(-c2ccc(C)cc2)c(=O)c1C#N | > 100 µM | > 100 µM | > 100 µM | > 100 µM | > 100 µM | > 100 µM | > 100 µM | > 100 µM | > 100 µM | > 100 µM | > 100 µM | > 100 µM | – | > 100 µM | > 100 µM | – | > 100 µM | > 100 µM | > 100 µM | > 100 µM
Oc1[nH]c2ccccc2c1N=NC(=S)N1CCCCC1 | 3.84 µM | 15.5 µM | 1.03 µM | 6.58 µM | 15.1 µM | 12.2 µM | 10.9 µM | 7.83 µM | 6.64 µM | 2.43 µM | 5.02 µM | 2.23 µM | 3.36 µM | 4.58 µM | 1.7 µM | – | 1.8 µM | 3.2 µM | 2.15 µM | –
CCC(C)C(C(=O)N/N=C1/SCC(=O)N1C)C(=O)N/N=C1/SCC(=O)N1C (centres undefined) | > 100 µM | > 100 µM | > 100 µM | > 100 µM | > 100 µM | > 100 µM | > 100 µM | > 100 µM | > 100 µM | > 100 µM | > 100 µM | > 100 µM | > 100 µM | > 100 µM | > 100 µM | – | > 100 µM | > 100 µM | > 100 µM | 7.65 µM
O=c1cc(CO)n(CCc2c[nH]c3ccccc23)cc1O | > 100 µM | > 100 µM | > 100 µM | 99.7 µM | > 100 µM | – | 83.3 µM | > 100 µM | 98.1 µM | > 100 µM | – | > 100 µM | > 100 µM | > 100 µM | 75.1 µM | 69.8 µM | > 100 µM | > 100 µM | 47.8 µM | –
CSc1ccccc1P(c1ccccc1SC)c1ccccc1SC | > 100 µM | > 100 µM | > 100 µM | > 100 µM | > 100 µM | > 100 µM | > 100 µM | > 100 µM | > 100 µM | > 100 µM | > 100 µM | > 100 µM | > 100 µM | > 100 µM | – | > 100 µM | > 100 µM | > 100 µM | > 100 µM | –
Cn1c(NN)nc(-c2ccc([N+](=O)[O-])cc2)c(C#N)c1=O | 27.4 µM | 24.9 µM | 17.3 µM | – | 29 µM | 25 µM | 30 µM | 30.8 µM | 27.2 µM | > 100 µM | 28.7 µM | 25 µM | 29.9 µM | 32.8 µM | 34.3 µM | > 100 µM | 42.3 µM | 35.2 µM | – | > 100 µM
CCOC(=O)[C@@H]1C[C@H]1c1ccc(O)c(O)c1 | > 100 µM | 37.8 µM | 31.3 µM | > 100 µM | > 100 µM | > 100 µM | > 100 µM | > 100 µM | > 100 µM | > 100 µM | > 100 µM | 73.6 µM | > 100 µM | > 100 µM | > 100 µM | – | > 100 µM | – | > 100 µM | –
COC1(C(C)(C)C)C=C(C(C)(C)C)P(=O)(O)O1 (centres undefined) | > 100 µM | > 100 µM | > 100 µM | > 100 µM | > 100 µM | > 100 µM | > 100 µM | > 100 µM | > 100 µM | > 100 µM | – | > 100 µM | > 100 µM | > 100 µM | > 100 µM | – | > 100 µM | > 100 µM | – | > 100 µM
Cc1cccc2[nH]c3cc(O)cc(O)c3c(=O)c12 | > 10 µM | > 10 µM | > 10 µM | > 10 µM | > 10 µM | > 10 µM | > 10 µM | > 10 µM | > 10 µM | > 10 µM | > 10 µM | > 10 µM | > 10 µM | > 10 µM | > 10 µM | > 10 µM | > 10 µM | > 10 µM | > 10 µM | –
CCSc1c(C)c2c(n(Cc3ccc(OC)cc3)c1=O)Cc1ccccc1C2 | 73.3 µM | > 100 µM | 77.4 µM | – | 46.5 µM | > 100 µM | > 100 µM | 82.4 µM | 28.9 µM | – | > 100 µM | 27.3 µM | > 100 µM | > 100 µM | > 100 µM | > 100 µM | > 100 µM | 76.2 µM | 14.8 µM | 31.6 µM
O=C(c1ccco1)C1CC(c2ccc3ccccc3c2O)=NN1 (centres undefined) | > 100 µM | > 100 µM | > 100 µM | > 100 µM | > 100 µM | > 100 µM | > 100 µM | > 100 µM | > 100 µM | > 100 µM | > 100 µM | > 100 µM | > 100 µM | > 100 µM | > 100 µM | > 100 µM | > 100 µM | – | > 100 µM | –
COc1ccc(-c2cc(-c3ccc(Cl)cc3)n(C3OC(CO)C(O)C(O)C3O)c(=S)c2C#N)cc1 (centres undefined) | 82.8 µM | > 100 µM | > 100 µM | > 100 µM | > 100 µM | > 100 µM | > 100 µM | > 100 µM | 35.5 µM | > 100 µM | – | 89.7 µM | > 100 µM | > 100 µM | – | – | > 100 µM | > 100 µM | > 100 µM | –
O=[N+]([O-])c1ccc(N=Nc2c(O)ccc3cc(S(=O)(=O)O)ccc23)cc1 | > 100 µM | > 100 µM | > 100 µM | > 100 µM | > 100 µM | > 100 µM | > 100 µM | > 100 µM | > 100 µM | > 100 µM | – | > 100 µM | > 100 µM | > 100 µM | > 100 µM | > 100 µM | > 100 µM | > 100 µM | > 100 µM | –
O=C(O)CN=C(C(=NCC(=O)O)c1ccccc1)c1ccccc1 | > 100 µM | > 100 µM | – | – | > 100 µM | > 100 µM | > 100 µM | > 100 µM | > 100 µM | > 100 µM | > 100 µM | > 100 µM | > 100 µM | > 100 µM | > 100 µM | – | > 100 µM | > 100 µM | > 100 µM | –
